Patent US12077607B2, “Functional and therapeutic effects of PAR4 cleavage by cathepsin G” (UNIVERSITY OF UTAH RESEARCH FOUNDATION, priority 2021, dated 2024)
No end group written: not given here.

Experiments:
[1] = biological target: T1, PAR-1 (Homo sapiens, UniProt P25116); assay: Antagonist study: PAR-1 inhibitor in platelet aggregation; format: cell-based; details: 100 nM VPX
T1 construct: endogenous in cells; host or cells: human washed platelets
T1 sequence (P25116 22-425): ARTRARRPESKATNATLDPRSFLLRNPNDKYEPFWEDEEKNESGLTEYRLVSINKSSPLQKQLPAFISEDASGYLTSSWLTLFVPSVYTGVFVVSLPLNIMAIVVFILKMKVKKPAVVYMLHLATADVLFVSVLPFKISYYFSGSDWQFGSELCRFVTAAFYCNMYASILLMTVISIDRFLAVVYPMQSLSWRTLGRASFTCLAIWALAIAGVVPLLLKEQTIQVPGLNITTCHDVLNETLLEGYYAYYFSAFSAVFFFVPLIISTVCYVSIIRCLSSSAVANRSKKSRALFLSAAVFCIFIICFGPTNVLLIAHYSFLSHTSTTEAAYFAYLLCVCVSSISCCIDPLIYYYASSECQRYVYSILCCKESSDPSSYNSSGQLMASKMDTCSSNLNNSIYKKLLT
Description: Human washed platelets were prepared and resuspended in Tyrode's Buffer at 2×10^8/mL as described (Edelstein et al., Nat Med. 2013; 19(12):1609-1616). […] Platelet aggregation was measured under stirring conditions at 37° C. using a PAP-8E aggregometer after treatment with the following agonists: arachidonic acid (Bio/Data Corporation, Horsham, PA, USA), cathepsin G, elastase, proteinase 3 (Athens Research Group), α-thrombin (Sigma, St. Louis, MO, USA), PAR-1 peptide (SFLLRN) (GL Biochem, China).
Antagonist Studies. Washed platelets were incubated for 15 minutes at 37° C. with PAR-4 blocking antibody RC3 (100 μg/mL) (generous gift from Regeneron Pharmaceuticals; French et al., Blood Adv. 2018; 2(11): 1283-1293), PAR-1 inhibitor vorapaxar (100 nM), and/or PAR-4 inhibitor BMS-986120 (400 nM) (Cayman Chemical, Ann Arbor, MI, USA).

[2] = tested on: washed platelets; assay: Platelet calcium flux assay; format: cell-based, human; details: CatG 500 nM; for platelet calcium flux: peptides 2 mM, FURA2-AM loaded washed platelets
Description: Platelet calcium flux assay. Washed platelets were incubated at 37° C. for 1 hour in Tyrode's buffer (supplemented with pgel and heparin) with Fura-2AM (final concentration 2 μM). Platelets were washed and resuspended to a final concentration of 4×10^8/mL. Platelets were dispensed into a Costar 96-well half area clear bottom plate and placed in the Flexstation 3 (Molecular Devices) where cathepsin G (500 nM), buffer, or peptides (2 mM) were injected onto cells and calcium flux monitored.
(§1) GYPGQV-NH2 (SEQ ID NO: 5), RALLLGWVPTR-NH2 (SEQ ID NO: 1), ALLLGWVPTR-NH2 (SEQ ID NO: 2), RALLLG-NH2 (SEQ ID NO: 4). Peptides were synthesized by BIOMATIK (Wilmington, DE, USA) at similar purities. All peptides were suspended in 50% DMSO and 50% ethanol. To measure platelet activation, washed platelets were stimulated with various concentrations of the peptide in the presence of CD41-APC, P-selectin (PE) and PAC-1 (FITC) for 15 minutes at 37° C. and then fixed with FACS Lysis Buffer. Samples were immediately run on a Cytoflex flow cytometer. In some experiments, platelets were stimulated with peptides and platelet aggregation performed as described above. Platelet calcium flux was induced by RALLLGWVPTR (2 mM; SEQ ID NO: 1), CatG (500 nM), ALLLGWVPTR (2 mM; SEQ ID NO: 2) or tyrodes buffer and monitored as described above.

[3] = tested on: washed platelets; assay: Platelet aggregation of human washed platelets; format: cell-based; details: for platelet aggregation induced by peptide / peptide concentration producing maximal platelet aggregation: washed platelets; for platelet aggregation induced by peptide: 1 mM peptide (RA-6mer 1 mM or 10 mM; AL-10mer independent of concentration)
Description: (§2) Platelet isolation, aggregation, and activation. Human washed platelets were prepared and resuspended in Tyrode's Buffer at 2×10^8/mL as described (Edelstein et al., Nat Med. 2013; 19(12):1609-1616). For human and dog platelet comparisons, platelets were prepared using a modified human platelet protocol with final concentrations of […] (Cayman Chemical, Ann Arbor, MI, USA) used during centrifugation steps. Centrifugations after Tyrode's washes was decreased to 1,250×g as described in Cremer et al., PLOS One. 2019; 14(11): e0224891. Platelet aggregation was measured under stirring conditions at 37° C. using a PAP-8E aggregometer after treatment with the following agonists: arachidonic acid (Bio/Data Corporation, Horsham, PA, USA), cathepsin G, elastase, proteinase 3 (Athens Research Group), α-thrombin (Sigma, St. Louis, MO, USA), PAR-1 peptide (SFLLRN) (GL Biochem, China). P-selectin and PAC-1 were measured as previously described (Yee et al., J Thromb Haemost. 2006; 4(9):2043-2050; Tourdot et al., Arterioscler Thromb Vasc Biol. 2014; 34(12):2644-2650).
as §1

[4] = Ability of peptide to go into solution; format: physicochemical; details: numerous attempts with different solvents
Text: Having said that, perhaps the hydrophobic portion of the C-terminus of RALLLGWVPTR (SEQ ID NO: 1) stabilizes the tethered ligand on the platelet plasma membrane.

[5] = tested on: washed platelets; assay: Platelet activation by flow cytometry (PAC-1 binding, P-selectin); format: cell-based, human; details: 1 mM peptide vs buffer; washed platelets
Description: as §2, §1

[6] = tested on: mouse washed platelets; assay: Platelet aggregation of mouse washed platelets; format: cell-based; details: 1 U/mL human thrombin, 1 μM human CatG or 1 mM RA-11mer
Text: (§3) Animal studies. Mouse platelets were isolated as previously described from C57BL/6 mice (Denorme et al., Blood. 2020; 135(6):429-440). Dog platelets were isolated from whole blood drawn into ACD using a similar isolation procedure as for human platelets. All animal studies were approved by the University of Utah Institutional Animal Care and Use Committee (18-10012).
(§4) Platelet and neutrophil isolation. Platelets and neutrophils were isolated as previously described (Yost et al., J Clin Invest. 2016; 126(10):3783-3798). Platelet isolation from dogs, rats and mice was approved by the IACUC. Platelet activation and aggregation were performed as previously described (Manne et al., Blood. 2020; 136(11): 1317-1329).
as §2

[7] = biological target: T2, WT human PAR4 (hPAR4) (Homo sapiens, UniProt Q96RI0); assay: PAR4 calcium flux assay in HEK293T/17 cells expressing WT PAR4; format: cell-based; details: 1.5 mM peptide; HEK293T/17 cells
T2 construct: Flag; expressed in transfected cells; host or cells: HEK293T/17 (ATCC CRL-11268)
T2 sequence (Q96RI0 18-385): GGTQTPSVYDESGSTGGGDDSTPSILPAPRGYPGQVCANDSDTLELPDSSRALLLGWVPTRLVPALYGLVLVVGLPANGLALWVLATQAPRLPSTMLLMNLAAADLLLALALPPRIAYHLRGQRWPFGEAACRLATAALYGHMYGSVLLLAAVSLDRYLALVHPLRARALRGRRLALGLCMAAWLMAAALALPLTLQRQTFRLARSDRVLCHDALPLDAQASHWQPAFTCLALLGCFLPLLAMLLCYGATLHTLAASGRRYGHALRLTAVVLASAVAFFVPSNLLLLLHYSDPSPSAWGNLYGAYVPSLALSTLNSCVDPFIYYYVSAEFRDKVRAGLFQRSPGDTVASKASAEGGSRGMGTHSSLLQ
Description: PAR4 calcium flux assays. PAR4-dependent calcium flux was measured using Fura2-QBT in platelets and HEK293T/17 cells with wild-type (WT) and mutant PAR4 (Tourdot et al., Arterioscler Thromb Vasc Biol. 2014; 34(12):2644-2650).
PAR4 mutant calcium flux assays. Using Quikchange Lightning Site-Directed mutagenesis (Agilent) per manufacturing instructions, pCMV-Flag-PAR4-S66E, pCMV-Flag-PAR4-S67E, and pCMV-Flag-PAR4-R68E were generated from mutation of pCMV-Flag-PAR4 and confirmed by sequencing (University of Utah DNA Sequencing Core). Prior to transfection, HEK293T/17 cells (ATCC CRL-11268) were seeded at 4.5×10^4/mL. The following day, cells were transfected with the plasmid of interest using Lipofectamine 2000 (Invitrogen, Carlsbad, CA, USA). Twenty-four hours after transfection, media was removed and replaced with Optimem w/Glutamax (Gibco, Carlsbad, CA, USA) containing vorapaxar (100 nM) (Cayman Chemical, Ann Arbor, MI, USA) and Fura2-QBT (Molecular Devices). Following incubation for 1 hour at 37° C., plate was placed in the Flexstation 3 (Molecular Devices) where agonists, Tyrode's Buffer, cathepsin G (2.5 μM), or α-thrombin (1.5 U/mL), were injected onto cells and calcium mobilization was monitored and recorded.

[8] = tested on: dog washed platelets; assay: Platelet aggregation of dog washed platelets; format: cell-based; details: 1 U/mL human thrombin, 1 μM human CatG or 1 mM RA-11mer
Text: as §3, §4, §2

[9] = tested on: rat washed platelets; assay: Platelet aggregation of rat washed platelets; format: cell-based; details: 1 U/mL human thrombin, 1 μM human CatG or 1 mM RA-11mer
Description: as §4, §2

Question: Which results are given for `CCOC(=O)N[C@@H]1CC[C@@H]2[C@@H](C1)C[C@H]1C(=O)O[C@H](C)[C@H]1[C@H]2/C=C/c1ccc(-c2cccc(F)c2)cn1` [VPX, vorapaxar]?
Answer: effect on thrombin-induced platelet aggregation ([1]; 0.1 U/mL thrombin): abolished; effect on PAR1 activation by PAR1 activation peptide ([1]; SFLLRN 10 μM): efficiently ablated PAR1 activation

Question: With “ALLLGWVPTR (ALLLGWVPTR-NH2) [10-mer PAR4 Tethered Ligand Fragment]” as the molecule, how does the platelet calcium flux [2] read?
Answer: no discernable

Question: And the “platelet aggregation induced by peptide” value [3]?
Answer: no discernable platelet aggregation

Question: For “GYPGQV-NH2 [the thrombin-generated PAR4 tethered ligand, reference compound]”, which “peptide concentration producing maximal platelet aggregation” value [3] is on record?
Answer: 6 mM

Question: With “RALLLG-NH2 [6mer from the CatG tethered ligand]” as the molecule, how does the “platelet aggregation induced by peptide” value [3] read?
Answer: not able to induce platelet aggregation

Question: With “RALLLGWV [RALLLGWV 8mer, 8-mer PAR4 Tethered Ligand Fragment, intermediate length peptide]” as the molecule, how does the “ability to go into solution” value [4] read?
Answer: inability to go into solution

Question: With “RALLLGWVPTR (RALLLGWVPTR-NH2) [synthetic peptide representing the CatG-generated PAR4 tethered ligand]” as the molecule, how does the “granule release (P-selectin expression)” value [5] read?
Answer: increased

Question: What about the “integrin activation (PAC-1 binding)” value [5] of the same molecule?
Answer: increased

Question: And the “platelet aggregation, species comparison: mice” value [6]?
Answer: induced aggregation only in humans and dogs

Question: And the “calcium flux in HEK cells transfected with WT PAR4 compared with mock” value [7]?
Answer: induced calcium flux

Question: And the “peak platelet calcium flux, CatG compared with RALLLGWVPTR” value ([2]; RA-11mer 2 mM)?
Answer: similar

Question: What about the platelet calcium flux [2] of the same molecule?
Answer: significant and sustained calcium flux

Question: What about the “platelet aggregation, species comparison: humans” value ([3]; 1 U/mL human thrombin, 1 μM human CatG or 1 mM RA-11mer) of the same molecule?
Answer: induced aggregation

Question: What about the “potency as activator of PAR4, comparison” value ([3]; from platelet aggregation data) of the same molecule?
Answer: more potent activator of PAR4 than the thrombin-generated tethered ligand

Question: What about the “peptide concentration producing maximal platelet aggregation” value [3] of the same molecule?
Answer: 1 mM

Question: And the “platelet aggregation induced by peptide” value [3]?
Answer: increased

Question: What about the “platelet aggregation, species comparison: dogs” value [8] of the same molecule?
Answer: induced aggregation

Question: What about the “platelet aggregation, species comparison: rats” value [9] of the same molecule?
Answer: induced aggregation only in humans and dogs
